Earlier results, collected in patent publication EP1935424A1, “PHARMACEUTICAL COMPOSITIONS COMPRISING COMBINED ANTIDIABETIC SUBSTANCES FOR USE IN DIABETES MELLITUS” (ESPINOZA ABDALA, Leopoldo de Jesús, priority 2005, dated 2007).
Where two headings read alike, the source gives them in different places.

Experiments:
[1] = for metabolized by: enzymes named; for tmax (plasma peak following administration) / bioavailability: oral; for absorption: oral / gastrointestinal tract, in words; for half-life (clearance half-life in plasma): parent compound; for eliminated by renal route without being metabolized: share of the administered dose as non-metabolized drug
[2] = test system: plasma proteins
[3] = route of clearance, table Sulfonylureas: Pharmacokinetc Properties
[4] = table Sulfonylureas: Pharmacokinetc Properties, unit not given

SMILES | Clearance [1, 3] | Action duration [1, 4] | metabolized by [1] | tmax (plasma peak following administration) [1] [h] | half-life (clearance half-life in plasma) [1] | binds to plasma proteins [2] | also measured
COc1ccc(Cl)cc1C(=O)NCCc1ccc(S(=O)(=O)NC(=O)NC2CCCCC2)cc1 [Glibenclamide] |  |  |  |  |  |  | Action duration ([1]; in vivo): 12-16; Clearance ([1]; in vivo): Hepatic
Cc1ccc(S(=O)(=O)NC(=O)NN2CC3CCCC3C2)cc1 (centres unmarked) [Glicazide] | Hepatic | 12-13 |  |  |  |  | 
CCOc1cc(CC(=O)N[C@@H](CC(C)C)c2ccccc2N2CCCCC2)ccc1C(=O)O [Repaglinide] |  |  | cytochrome P450 and by glucuronidases | 1 | about 1 hours | more than 98% | eliminated, time following administration ([1]; in vivo): 4 to 6 h; absorption [1]: rapidly absorbed; insulinotropic response to a meal occurs after taking an oral dose ([1]; patients with type 2 diabetes, oral dose): ≤ 30 min
CCC1=C(C)CN(C(=O)NCCc2ccc(S(=O)(=O)NC(=O)N[C@H]3CC[C@H](C)CC3)cc2)C1=O [Glimepiride] | Hepatic and renal | 24 |  |  |  |  | 
CN(C)C(=N)N=C(N)N [Metformin] |  |  |  |  |  |  | absorption is completed in ([1]; gastrointestinal tract): about 6 hours; excreted by renal route ([1]; of an oral dose in 12 hours): 90%
COc1ccc2c(c1)C(=O)N(CCc1ccc(S(=O)(=O)NC(=O)NC3CCCCC3)cc1)C(=O)C2(C)C [Gliquidone] | Hepatic | 2-4 |  |  |  |  | 
CN(CCOc1ccc(CC2SC(=O)NC2=O)cc1)c1ccccn1 (centres unmarked) [Rosiglitazone] |  |  | cytochrome P450 isoenzymes 2C8 and 2C9 | 1 | 3 to 4 h | 99.8% | eliminated in feces ([1]; in vivo): 23%; eliminated in urine ([1]; in vivo): 64%; bioavailability [1]: 99%
C[C@H]1O[C@H](O[C@H]2[C@H](O)[C@@H](O)[C@@H](O[C@H]3[C@H](O)[C@@H](O)C(O)O[C@@H]3CO)O[C@@H]2CO)[C@H](O)[C@@H](O)[C@@H]1N[C@H]1C=C(CO)[C@@H](O)[C@H](O)[C@H]1O (some centres unmarked) [Acarbose] |  |  |  |  |  |  | absorbed orally ([1]; in vivo, po): < 2%; absorption [1]: poorly absorbed orally
CC(C)[C@H]1CC[C@H](C(=O)N[C@H](Cc2ccccc2)C(=O)O)CC1 [Nateglinide] |  |  | CYP3A4 and CYP2C9 | 1 | about 1.5 hours | 97% | bioavailability [1]: greater than 70%; absorption [1]: rapidly absorbed; eliminated by renal route without being metabolized [1]: About 16%
CCc1ccc(CCOc2ccc(CC3SC(=O)NC3=O)cc2)nc1 (centres unmarked) [Pioglitazone] |  |  | CYP3A4 and CYP2C9 | 2 | 5 to 6 h | more than 99% | bioavailability [1]: ~80%; clearance half-life for the metabolites ([1]; three active metabolites): 16 to 24 h
Cc1cnc(C(=O)NCCc2ccc(S(=O)(=O)NC(=O)NC3CCCCC3)cc2)cn1 [Glipizide] |  | 5-10 |  |  |  |  | 
CCCNC(=O)NS(=O)(=O)c1ccc(Cl)cc1 [Chlorpropamide] | Hepatic and renal | 24-72 |  |  | 24 to 48 h |  | eliminated by renal route without being metabolized [1]: about 20%
